Experimental data: US20180133248A1, “T[…] AGENT AND TREATMENT” (priority 2014, published 2018)

Tested on: normal bank blood
Test: In vitro pO2 and hemoglobin saturation of bank blood after oxygen or ozone/oxygen treatment
Conditions: 5 minutes after gas administration
Experimental: Ozone/oxygen was obtained from a pure (medical grade) oxygen by means of a medical ozone generator (Ozomed, a device manufactured in N.C.S.R., Havana, Cuba), at a concentration of 50 mg ozone/L oxygen (ca. 3.7%).
The ability of ozone/oxygen to in vitro raise pO2 of normal bank blood was compared to that of pure medical oxygen. To each one often paired (5+5) blood samples (5 mL each) contained in closed 10 ml vials, 2.5 mL of pure oxygen or ozone/oxygen mixture respectively were carefully bubbled through. Gasometric analyses were performed in test samples 5 minutes after gas administration and also in control untreated samples.

Structure (SMILES): O=O [O2, oxygen]
- PO2 (5 mL blood, 2.5 mL gas bubbled through, n = 5, control 41 ± 1): 73 ± 2
- PO2 rise (%) (above control) (n = 5): 78%
- HB saturation (n = 5, control 60 ± 1): 86 ± 2
